Legend:
Uromyces phaseoli = assay: Bean rust control on sprayed bean seedlings (Example 85); type: in vivo
Method: This suspension was sprayed to the point of run-off on bean seedlings. The following day, the plants were inoculated with a spore suspension of the fungus Uromyces phaseoli, causal agent of bean rust, and incubated in a saturated humidity chamber at 20° for 24 hours and then in a greenhouse for 7 days. Disease ratings were then made. Treated plants from successful treatments had few or no rust pustules in contrast to untreated plants which were covered with rust pustules.

5 Phytophthora species = type: cell-based; conditions: 200.0 ppm in V-8 agar, 22° C., 6 days
Cercospora arachidicola = assay: Peanut early leafspot control on sprayed peanut seedlings (Example 84); type: in vivo; conditions: Mycosphaerella arachidis, 360 h, 100 ppm spray, day before inoculation; read-out: % Control Peanut Easly Leafspot
Venturia inaequalis = assay: Apple scab control on sprayed apple seedlings (Example 82); type: in vivo; conditions: Venturia inaequalis, 100 ppm spray, day before inoculation
Phytophthora infestans = assay: whole plant or invertebrate; type: in vivo; conditions: Phytophthora infestans, in Solanum lycopersicum, 168 h, read-out: % Control of Tomato Late Blight, 100 ppm spray, day before inoculation
Erysiphe cichoracearum = assay: Cucumber powdery mildew control on sprayed cucumber seedlings (Example 80); type: in vivo; conditions: Golovinomyces cichoracearum, 168 h, 100 ppm spray, day before inoculation
[1] = test system: Puccinia recondita var. tritici; assay: Wheat leaf rust control on sprayed wheat seedlings (Example 79); type: in vivo; conditions: Puccinia recondita, 168 h; 100 ppm spray, day before inoculation
Procedure, shortened: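 Disease was scored as leaf rust pustules 7 days after a 24 h, 20° saturated-humidity incubation of seedlings inoculated with P. recondita var. tritici spores. Inoculation followed by one day a run-off spray of 100 ppm compound in water containing 6% acetone and 250 ppm TREM 014.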

Rhizoctonia solani = assay: Rice sheath blight control on sprayed rice seedlings (Example 87); type: in vivo; conditions: Rhizoctonia solani, 168 h, 100 ppm spray, day before inoculation
Procedure, shortened: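 Disease ratings followed 7 days' growth-room incubation of seedlings given a bran/R. solani mycelium inoculum. Inoculation took place one day after spraying to run-off. The spray was a 100 ppm compound suspension in water containing 6% acetone and 250 ppm TREM 014.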

Helminthosporium maydis = assay: Southern corn leaf blight control on sprayed corn seedlings (Example 83); type: in vivo; conditions: Bipolaris maydis, 192 h, 100 ppm spray, day before inoculation
Procedure, shortened: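 Corn seedlings were sprayed to run-off with 100 ppm suspensions (6% acetone, 250 ppm TREM 014) and spore-inoculated the following day. Disease and growth reduction were rated after 24 h saturated humidity at 20° plus 7 days in a growth room.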

Pyricularia oryzae = assay: whole plant or invertebrate; type: in vivo; conditions: Pyricularia oryzae, 168 h, read-out: % Control of Rice Blast, 100 ppm spray, day before inoculation
Monilinia fructicola = assay: Stone fruit brown rot control on dipped canned peach halves (Example 86); conditions: 120 h, 100 ppm dip, percent growth inhibition of colonies after five days
From the text: Several compounds of the previous examples were again dissolved in acetone in an amount equal to 5% of the final volume and then suspended at a concentration of 100 ppm in purified water containing 700 ppm of the surfactant TREM 014 (polyhydric alcohol esters). Canned peach halves were dipped in this suspension for three minutes and then placed to air dry in sterile containers. Upon drying, the peach halves were inoculated with two pieces of Monilinia fructicola mycelium, causal agent of stone fruit brown rot, and incubated in the sterile containers for five days. At that time the radii of the colonies' growth were measured on each peach. […] Percent disease control (percent growth inhibition of colonies on treated peaches as compared to that of colonies on untreated peaches) is expressed in the table below.

cucumber seedlings = assay: Phytotoxicity on cucumber seedlings (Example 80); type: in vivo; parameters: key: G = growth reduction; H = hormonal effects; conditions: 100 ppm spray
Procedure, shortened: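 Disease was rated 7 days after inoculation with powdery mildew spores, which followed one day after a run-off spray of 100 ppm compound in water with 6% acetone and 250 ppm TREM 014. Growth reduction or hormonal effects on the seedlings were recorded as phytotoxicity.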

apple seedlings [2] = assay: Phytotoxicity on apple seedlings (Example 82); type: in vivo; parameters: key: G = growth reduction; H = hormonal effects; conditions: 100 ppm spray
Method: (§1) These suspensions were sprayed to the point of run-off on apple seedlings. The following day, the plants were inoculated with a spore suspension of the fungus Venturia inaequalis, causal agent of apple scab, and incubated in a saturated humidity chamber at 20° for 24 hours and then in a growth room for an additional 10-12 days. Treated plants from successful treatments had fewer apple scab lesions when compared to untreated plants which were covered with scab lesions. Phytotoxicity expressed as growth reduction was observed on some of the plants in association with disease control.

apple seedlings [3] = assay: Phytotoxicity on apple seedlings (Example 82); type: in vivo; parameters: key: G = growth reduction; C = chlorosis; B = burn; conditions: 100 ppm spray
Method: as §1

Pythium aphanadermatum [4] = assay: Pythium control on cotton, seed coating (Example 91); type: in vivo; conditions: 168 h, 2 gm/kg seed
From the text: Several compounds of the previous examples were incorporated into a proprietary formulation and used to coat cotton seeds at a rate of 2 gm/kg seed. After being thoroughly coated, the seeds were allowed to air dry at room temperature. The cotton seeds were then planted into soil amended with the fungus Pythium aphanadermatum, sand, and corn meal at a rate sufficient to kill most untreated seeds. The seeds were held at room temperature for 1 week, after which time disease ratings were made.

Pythium aphanadermatum [5] = assay: Pythium control on corn, seed coating (Example 92); type: in vivo; conditions: 504 h, 2 gm/kg seed
Method: Several compounds of the previous examples were incorporated into a proprietary formulation and used to coat corn seeds at a rate of 2 gm/kg seed. After being thoroughly coated, the seeds were allowed to air dry at room temperature. The seeds were then planted into soil amended with a mixture of the fungus Pythium aphanadermatum, sand, and corn meal at a rate sufficient to kill most untreated seeds. The seeds were held at 49° F. for 2 weeks and then at 70° F. for 1 additional week. After this time disease ratings were made.

C[Si](C)(Cn1cncn1)c1ccc(-c2ccccc2)cc1 [(1,1'-Biphenyl-4-yl)dimethyl(1H--1,2,4-triazol-1-ylmethyl)si] [(1,1'-Biphenyl-4-yl)dimethyl(1H-1,2,4-triazol-1-ylmethyl)silane] was tested, and the “% Control Bean Rust” value (Uromyces phaseoli; 80 ppm spray, day before inoculation) was 100% and the “No. of 5 Phytophthora species controlled in vitro” value (5 Phytophthora species) was 0.
With C[Si](Cn1cncn1)(c1ccccc1)c1ccc(Cl)cc1 (stereo not shown) [(4-Chlorophenyl)methyl(phenyl)(1H-1,2,4-triazol-1-ylmethyl)silane] the pest or weed control at 100 ppm (Cercospora arachidicola) was 100%, the pest or weed control at 100 ppm (Venturia inaequalis) was 100% and the “% Control Bean Rust” value (Uromyces phaseoli; applied at 16 ppm) was 98%. The pest or weed control at 100 ppm (Phytophthora infestans) was 0%, the “No. of 5 Phytophthora species controlled in vitro” value (5 Phytophthora species) was 0 and the pest or weed control at 100 ppm (Erysiphe cichoracearum) was 100%. For the same molecule, the pest or weed control at 100 ppm [1] was 100%, the pest or weed control at 100 ppm (Rhizoctonia solani) was 90% and the pest or weed control at 100 ppm (Helminthosporium maydis) was 90%. For the same molecule, the pest or weed control at 100 ppm (Pyricularia oryzae) was 100%, the inhibition of growth at 100 µg/mL (Monilinia fructicola) was 70% and the Phytotoxicity on cucumber (cucumber seedlings) was “G”.
In the case of C[Si](Cn1cncn1)(c1ccccc1)c1ccc(F)cc1 (stereo not shown) [(4-Fluorophenyl)methyl(phenyl)(1H-1,2,4-triazol-1-ylmethyl)silane], the pest or weed control at 100 ppm (Cercospora arachidicola) is reported as 100%, the pest or weed control at 100 ppm (Venturia inaequalis) is reported as 100% and the “% Control Bean Rust” value (Uromyces phaseoli; applied at 16 ppm) is reported as 100%. For the same molecule, the pest or weed control at 100 ppm (Phytophthora infestans) was 0%, the “No. of 5 Phytophthora species controlled in vitro” value (5 Phytophthora species) was 0 and the pest or weed control at 100 ppm (Erysiphe cichoracearum) was 100%. It also gave a pest or weed control at 100 ppm [1] of 90%, a pest or weed control at 100 ppm (Rhizoctonia solani) of 80% and a pest or weed control at 100 ppm (Helminthosporium maydis) of 90%. For the same molecule, the pest or weed control at 100 ppm (Pyricularia oryzae) was 0% and the inhibition of growth at 100 µg/mL (Monilinia fructicola) was 90%.
For CCCC[Si](C)(Cn1cncn1)c1ccc(Cl)cc1Cl (stereo not shown) [Butyl(2,4-dichlorophenyl)methyl(1H-1,2,4-triazol-1-ylmethyl)silane], the Phytotoxicity on apple (apple seedlings [2]) was “G”, the pest or weed control at 100 ppm (Cercospora arachidicola) was 100% and the pest or weed control at 100 ppm (Venturia inaequalis) was 100%. For the same molecule, the pest or weed control at 100 ppm (Phytophthora infestans) was 0%, the “No. of 5 Phytophthora species controlled in vitro” value (5 Phytophthora species) was 0 and the pest or weed control at 100 ppm (Erysiphe cichoracearum) was 100%. The pest or weed control at 100 ppm [1] was 100%, the pest or weed control at 100 ppm (Rhizoctonia solani) was 50% and the pest or weed control at 100 ppm (Helminthosporium maydis) was 100%. For the same molecule, the pest or weed control at 100 ppm (Pyricularia oryzae) was 0%, the inhibition of growth at 100 µg/mL (Monilinia fructicola) was 98% and the Phytotoxicity on cucumber (cucumber seedlings) was “G”.
C[Si](C)(Cn1cncn1)c1ccc(F)cc1 [Dimethyl(4-fluorophenyl)(1H-1,2,4-triazol-1-ylmethyl)silane] was tested, and the pest or weed control at 100 ppm (Cercospora arachidicola) was 50%, the pest or weed control at 100 ppm (Venturia inaequalis) was 80% and the Phytotoxicity on apple (apple seedlings [3]) was “C”. The pest or weed control at 100 ppm (Phytophthora infestans) was 0%, the pest or weed control at 100 ppm (Erysiphe cichoracearum) was 100% and the pest or weed control at 100 ppm [1] was 100%. For the same molecule, the pest or weed control at 100 ppm (Rhizoctonia solani) was 0%, the pest or weed control at 100 ppm (Helminthosporium maydis) was 90% and the pest or weed control at 100 ppm (Pyricularia oryzae) was 0%. The Phytotoxicity on cucumber (cucumber seedlings) was “G”.
Molecule C[Si](Cn1cncn1)(c1ccc(F)cc1)c1ccc(F)cc1 [bis(4-Fluorophenyl)methyl(1H,-1,2,4-triazol-1-ylmethyl)silane] has a pest or weed control at 2 g/kg seed (Pythium aphanadermatum [4]) of 0%, a pest or weed control at 100 ppm (Cercospora arachidicola) of 100% and a pest or weed control at 100 ppm (Venturia inaequalis) of 100%. The “% Control Bean Rust” value (Uromyces phaseoli; applied at 16 ppm) was 98%, the pest or weed control at 100 ppm (Phytophthora infestans) was 0% and the pest or weed control at 2 g/kg seed (Pythium aphanadermatum [5]) was 0%. The “No. of 5 Phytophthora species controlled in vitro” value (5 Phytophthora species) was 0, the pest or weed control at 100 ppm (Erysiphe cichoracearum) was 100% and the pest or weed control at 100 ppm [1] was 0%. It also gave a pest or weed control at 100 ppm (Rhizoctonia solani) of 80%, a pest or weed control at 100 ppm (Helminthosporium maydis) of 100% and a pest or weed control at 100 ppm (Pyricularia oryzae) of 100%. For the same molecule, the inhibition of growth at 100 µg/mL (Monilinia fructicola) was 100% and the Phytotoxicity on cucumber (cucumber seedlings) was “G”.

Source: US4510136A (priority 1983, dated 1985)
